Molecular target: T1, recombinant Axl tyrosine kinase (Homo sapiens, UniProt P30530)
T1 construct: encompassing amino acids 473 to 894 of Axl; GST (N); made in house; host or cells: SF126 insect cells
T1 sequence (P30530 473-894): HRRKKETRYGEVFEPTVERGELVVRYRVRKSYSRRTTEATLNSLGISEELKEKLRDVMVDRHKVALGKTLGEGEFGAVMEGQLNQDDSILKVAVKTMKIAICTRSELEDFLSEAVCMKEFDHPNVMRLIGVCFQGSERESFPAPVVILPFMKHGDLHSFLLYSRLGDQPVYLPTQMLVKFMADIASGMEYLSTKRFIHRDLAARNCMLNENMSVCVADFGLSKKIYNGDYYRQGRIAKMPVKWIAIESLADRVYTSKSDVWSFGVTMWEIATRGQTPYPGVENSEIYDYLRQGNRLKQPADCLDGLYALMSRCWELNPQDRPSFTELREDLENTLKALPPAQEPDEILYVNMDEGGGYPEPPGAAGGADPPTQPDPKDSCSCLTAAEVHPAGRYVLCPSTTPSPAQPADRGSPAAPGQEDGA
Test: In vitro Axl kinase assay (AlphaScreen), Test (a)
Assay type: biochemical
Conditions: for % Axl tyrosine kinase inhibition at 1 μM concentration / inhibition at 1 µM: test compound at 1 μM, first value quoted; for inhibition at 1 µM: read-out: % Axl tyrosine kinase inhibition at 1 μM concentration

| SMILES | % Axl tyrosine kinase inhibition at 1 μM concentration [%] | other results |
| --- | --- | --- |
| Nc1ncc(-c2ccc(N3CCNCC3)cc2)nc1-c1nc2ccccc2o1 [Example 20.11] | 100.0 | – |
| CN(C)S(=O)(=O)c1ccc(-c2cnc(N)c(-c3nc4ccccc4o3)n2)cc1 [Example 20.12] | 92.7 | – |
| CCS(=O)(=O)c1cccc(-c2cnc(N)c(-c3nc4ccccc4o3)n2)c1 [Example 20.13] | 97.2 | – |
| CN(C)c1cccc(-c2cnc(N)c(-c3nc4ccccc4o3)n2)c1 [Example 20.15] | 96.9 | – |
| N#CCc1cccc(-c2cnc(N)c(-c3nc4ccccc4o3)n2)c1 [Example 20.16] | 99.6 | – |
| COCc1cccc(-c2cnc(N)c(-c3nc4ccccc4o3)n2)c1 [Example 20.17] | 98.8 | – |
| CS(=O)(=O)Oc1cccc(-c2cnc(N)c(-c3nc4ccccc4o3)n2)c1 [Example 20.18] | 98.1 | – |
| N#CCc1ccc(-c2cnc(N)c(-c3nc4ccccc4o3)n2)cc1 [Example 20.19] | 98.3 | – |
| Cc1nn(C2CCNCC2)cc1-c1cnc(N)c(-c2nc3ccccc3o2)n1 [Example 20.20, 3-(1,3-benzoxazol-2-yl)-5-[3-methyl-1-(4-piperidyl)pyrazol-4-yl]pyrazin-2-amine] | – | inhibition at 1 µM: 99.9% |
| Cc1nn(C2CCN(C(=O)OC(C)(C)C)CC2)cc1-c1cnc(N)c(-c2nc3ccccc3o2)c1 [Example 21, Tert-butyl 4-[4-[6-amino-5-(1,3-benzoxazol-2-yl)-3-pyridyl]-3-methyl-pyrazol-1-yl]piperidine-1-carboxylate] | – | inhibition at 1 µM: 9.7%; inhibition at 30 µM (test compound at 30 μM, read-out: % of Axl tyrosine kinase activity inhibited at a concentration of 30 μM): 76.4% |
| Cc1c(-c2cnc(N)c(-c3nc4ccccc4o3)c2)cnn1C1CCNCC1 [Example 24, 3-(1,3-benzoxazol-2-yl)-5-[5-methyl-1-(4-piperidyl)pyrazol-4-yl]pyridin-2-amine] | – | inhibition at 1 µM: 100% |
| CN1CCN(c2ncc(-c3cnc(N)c(-c4nc5ccccc5o4)c3)s2)CC1 [Example 25.5, 3-(1,3-benzoxazol-2-yl)-5-[2-(4-methylpiperazin-1-yl)thiazol-5-yl]pyridin-2-amine] | – | inhibition at 1 µM: 82.9% |
| COc1cc(N2CCN(C)CC2)ccc1-c1cnc(N)c(-c2nc3ncccc3o2)c1 [Example 25.6, 5-[2-methoxy-4-(4-methylpiperazin-1-yl)phenyl]-3-oxazolo[4,5-b]pyridin-2-yl-pyridin-2-amine] | – | inhibition at 1 µM: 99.5% |
| Nc1ncc(-c2cn(C3CCNCC3)nc2CO)cc1-c1nc2ccccc2o1 [Example 25.13, [4-[6-amino-5-(1,3-benzoxazol-2-yl)-3-pyridyl]-1-(4-piperidyl)pyrazol-3-yl]methanol] | – | inhibition at 1 µM: 100% |
| COCc1nn(C2CCNCC2)cc1-c1cnc(N)c(-c2nc3ccccc3o2)c1 [Example 25.14, 3-(1,3-benzoxazol-2-yl)-5-[3-(methoxymethyl)-1-(4-piperidyl)pyrazol-4-yl]pyridin-2-amine] | – | inhibition at 1 µM: 100% |
| Cc1nn(C2CCNCC2)cc1-c1cnc(N)c(-c2nc3c(F)cccc3o2)c1 [Example 25A, 3-(4-fluoro-1,3-benzoxazol-2-yl)-5-[3-methyl-1-(4-piperidyl)pyrazol-4-yl]pyridin-2-amine] | – | inhibition at 1 µM: 100% |
| Nc1ncc(-c2cnn(CCN3CCOCC3)c2)cc1-c1nc2ccccc2o1 [Example 26, 3-(1,3-benzoxazol-2-yl)-5-[1-(2-morpholinoethyl)pyrazol-4-yl]pyridin-2-amine] | – | inhibition at 1 µM: 99.3% |
| CN1C2CCC1CC(n1cc(-c3cnc(N)c(-c4nc5ccccc5o4)c3)cn1)C2 (stereo not shown) [Example 27.6] | 99.9 | – |
| Nc1ncc(-c2cnn(CCO)c2)cc1-c1nc2ccccc2o1 [Example 28, 2-[4-[6-amino-5-(1,3-benzoxazol-2-yl)-3-pyridyl]pyrazol-1-yl]ethanol] | – | inhibition at 1 µM: 99.3% |
| Nc1ncc(-c2cnn(CCCO)c2)cc1-c1nc2ccccc2o1 [Example 29.1, 3-[4-[6-amino-5-(1,3-benzoxazol-2-yl)-3-pyridyl]pyrazol-1-yl]propan-1-ol] | – | inhibition at 1 µM: 99.7% |
| CN1CCN(CCn2cc(-c3cnc(N)c(-c4nc5ccccc5o4)c3)cn2)CC1 [Example 30, 3-(1,3-benzoxazol-2-yl)-5-[1-[2-(4-methylpiperazin-1-yl)ethyl]pyrazol-4-yl]pyridin-2-amine] | – | inhibition at 1 µM: 99.8% |
| Nc1ncc(-c2cnn(CCN3CCNCC3)c2)cc1-c1nc2ccccc2o1 [Example 32, 3-(1,3-benzoxazol-2-yl)-5-[1-(2-piperazin-1-ylethyl)pyrazol-4-yl]pyridin-2-amine] | – | inhibition at 1 µM: 99.9% |
| COCC(=O)N1CCC(n2cc(-c3cnc(N)c(-c4nc5ccccc5o4)c3)cn2)CC1 [Example 33, 1-[4-[4-[6-amino-5-(1,3-benzoxazol-2-yl)-3-pyridyl]pyrazol-1-yl]-1-piperidyl]-2-methoxy-ethanone] | – | inhibition at 1 µM: 99.9% |
| CC(=O)N1CCC(n2cc(-c3cnc(N)c(-c4nc5ccccc5o4)c3)cn2)CC1 [Example 34.1] | 99.8 | – |
| Nc1ncc(-c2cnn(C3CCN(C(=O)CO)CC3)c2)cc1-c1nc2ccccc2o1 [Example 34.2] | 100.0 | – |
| CC(O)C(=O)N1CCC(n2cc(-c3cnc(N)c(-c4nc5ccccc5o4)c3)cn2)CC1 (stereo not shown) [Example 34.3] | 99.7 | – |
| COc1ccc2nc(-c3cc(-c4cnn(C5CCN(C)CC5)c4)cnc3N)oc2c1 [Example 35, 3-(6-methoxy-1,3-benzoxazol-2-yl)-5-[1-(1-methyl-4-piperidyl)pyrazol-4-yl]pyridin-2-amine] | – | inhibition at 1 µM: 99.6% |

Continued, in another order:

| % Axl tyrosine kinase inhibition at 1 μM concentration [%] | SMILES | other results |
| --- | --- | --- |
| 95.0 | N#CCC1(n2cc(-c3cnc(N)c(-c4nc5ccccc5o4)c3)cn2)CCNCC1 [Example 25.1] | – |
| 100.0 | COc1nn(C2CCNCC2)cc1-c1cnc(N)c(-c2nc3ccccc3o2)c1 [Example 25.2] | – |
| 100.0 | CCOc1nn(C2CCNCC2)cc1-c1cnc(N)c(-c2nc3ccccc3o2)c1 [Example 25.3] | – |
| 99.1 | CN1CCN(c2ccc(-c3cnc(N)c(-c4nc5ncccc5o4)c3)cc2)CC1 [Example 25.7] | – |
| 99.8 | COc1cc(-c2cnc(N)c(-c3nc4ncccc4o3)c2)ccc1N1CCNCC1 [Example 25.8] | – |
| 97.7 | CN1CCN(c2ccc(-c3cnc(N)c(-c4nc5cccnc5o4)c3)cc2)CC1 [Example 25.10] | – |
| 38.2 | CN1CCN(c2ncc(-c3cnc(N)c(-c4nc5cccnc5o4)c3)s2)CC1 [Example 25.12] | – |
| 99.9 | Cc1nn(C2CCNCC2)cc1-c1cnc(N)c(-c2nc3ncccc3o2)c1 [Example 25.16] | – |
| 100.0 | CN1CCCC(Cn2cc(-c3cnc(N)c(-c4nc5ccccc5o4)c3)cn2)C1 (stereo not shown) [Example 27.1] | – |
| 99.9 | Nc1ncc(-c2cnn(CCCN3CCCC3)c2)cc1-c1nc2ccccc2o1 [Example 27.2] | – |
| 96.4 | Nc1ncc(-c2cnn(CCN3CCCC3)c2)cc1-c1nc2ccccc2o1 [Example 27.3] | – |
| 99.2 | CN(C)CCCn1cc(-c2cnc(N)c(-c3nc4ccccc4o3)c2)cn1 [Example 27.4] | – |
| 98.4 | CN(C)CCn1cc(-c2cnc(N)c(-c3nc4ccccc4o3)c2)cn1 [Example 27.5] | – |
| 99.8 | Nc1ncc(-c2cnn(C3CCOCC3)c2)cc1-c1nc2ccccc2o1 [Example 27.7] | – |
| 99.8 | Nc1ncc(-c2cnn(C3CNC3)c2)cc1-c1nc2ccccc2o1 [Example 29.2] | – |
| 99.9 | Nc1ncc(-c2cnn(C3CCNC3)c2)cc1-c1nc2ccccc2o1 (stereo not shown) [Example 29.3] | – |
| 99.1 | Nc1ncc(-c2cnn(CC3CNC3)c2)cc1-c1nc2ccccc2o1 [Example 29.4] | – |
| 99.9 | Nc1ncc(-c2cnn(C3CCCNC3)c2)cc1-c1nc2ccccc2o1 (stereo not shown) [Example 29.6] | – |
| 99.8 | Nc1ncc(-c2cnn(CC3CCNCC3)c2)cc1-c1nc2ccccc2o1 [Example 29.7] | – |
| 88.7 | Cc1nn(C2CCNCC2)c(C)c1-c1cnc(N)c(-c2nc3ccccc3o2)c1 [Example 29.8] | – |
| 100.0 | Nc1ncc(-c2cnn(CCCN3CCC(O)C3)c2)cc1-c1nc2ccccc2o1 (stereo not shown) [Example 31.1] | – |
| 99.9 | Nc1ncc(-c2cnn(CCCN3CCC[C@@H]3CO)c2)cc1-c1nc2ccccc2o1 [Example 31.2] | – |
| 100.0 | CN1CCN(CCCn2cc(-c3cnc(N)c(-c4nc5ccccc5o4)c3)cn2)CC1 [Example 31.5] | – |
| 99.7 | Nc1ncc(-c2cnn(CCCN3CCC3)c2)cc1-c1nc2ccccc2o1 [Example 31.6] | – |
| 99.7 | Nc1ncc(-c2cnn(CCN3CCC[C@@H]3CO)c2)cc1-c1nc2ccccc2o1 [Example 31.8] | – |
| 99.8 | Nc1ncc(-c2cnn(CCN3CCC(O)CC3)c2)cc1-c1nc2ccccc2o1 [Example 31.9] | – |
| 94.3 | Nc1ncc(-c2cnn(CCN3CCC3)c2)cc1-c1nc2ccccc2o1 [Example 31.10] | – |
